This experiment addresses T1, FLT4 (VEGFR3) (Homo sapiens, UniProt P35916).
T1 construct: purchased Thermo Fisher Scientific (Life Technologies) SelectScreen
Kind of experiment: SelectScreen Z'LYTE. In kind it is biochemical. The method in brief:
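SelectScreen broad panel; activity (Z'LYTE, Adapta) plus binding formats. ATP: Km app for CSF1R Z'LYTE; 10 for CAMK1 Adapta. Readout = % per kinase.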

T1 sequence (P35916 25-1363): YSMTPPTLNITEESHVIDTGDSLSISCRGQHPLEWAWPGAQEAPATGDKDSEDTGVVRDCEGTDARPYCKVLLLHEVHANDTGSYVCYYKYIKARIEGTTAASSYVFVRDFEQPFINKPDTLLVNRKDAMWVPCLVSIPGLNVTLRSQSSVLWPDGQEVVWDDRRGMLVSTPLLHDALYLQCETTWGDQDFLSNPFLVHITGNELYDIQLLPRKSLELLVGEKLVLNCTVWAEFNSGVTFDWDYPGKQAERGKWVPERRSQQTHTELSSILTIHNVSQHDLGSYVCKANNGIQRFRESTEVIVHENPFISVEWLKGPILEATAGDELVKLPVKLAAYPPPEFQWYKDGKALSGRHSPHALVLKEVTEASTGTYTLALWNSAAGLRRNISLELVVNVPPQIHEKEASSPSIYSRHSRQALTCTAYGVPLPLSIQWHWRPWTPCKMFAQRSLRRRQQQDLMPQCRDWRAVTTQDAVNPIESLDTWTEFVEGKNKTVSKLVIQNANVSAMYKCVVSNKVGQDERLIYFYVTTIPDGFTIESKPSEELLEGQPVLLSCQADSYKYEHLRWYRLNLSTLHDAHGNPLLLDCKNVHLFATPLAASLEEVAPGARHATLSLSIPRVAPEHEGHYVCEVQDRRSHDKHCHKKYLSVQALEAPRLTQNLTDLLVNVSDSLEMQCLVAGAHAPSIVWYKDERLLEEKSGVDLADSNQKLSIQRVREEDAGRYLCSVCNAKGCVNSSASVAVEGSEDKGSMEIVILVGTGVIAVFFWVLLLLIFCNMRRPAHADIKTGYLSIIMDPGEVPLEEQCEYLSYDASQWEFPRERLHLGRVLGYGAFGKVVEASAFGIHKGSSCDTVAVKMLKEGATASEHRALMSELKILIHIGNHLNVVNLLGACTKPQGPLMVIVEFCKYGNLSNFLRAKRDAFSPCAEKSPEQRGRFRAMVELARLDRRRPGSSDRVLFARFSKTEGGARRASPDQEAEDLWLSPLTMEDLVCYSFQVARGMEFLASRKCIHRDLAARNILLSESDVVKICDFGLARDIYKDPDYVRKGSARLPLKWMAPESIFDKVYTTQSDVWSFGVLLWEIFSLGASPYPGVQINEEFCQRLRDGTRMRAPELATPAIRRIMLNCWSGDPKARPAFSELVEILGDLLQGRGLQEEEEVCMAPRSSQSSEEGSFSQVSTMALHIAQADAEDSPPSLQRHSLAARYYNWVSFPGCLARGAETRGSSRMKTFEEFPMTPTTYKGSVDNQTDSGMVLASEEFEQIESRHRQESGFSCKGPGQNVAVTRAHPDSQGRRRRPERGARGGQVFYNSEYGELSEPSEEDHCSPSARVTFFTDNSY

As to `CN(C(=O)CN1CCOCC1)c1ccc2sc3c(-c4cccc5c(=O)cc(N6CC7CCC(C6)O7)oc45)cccc3c2c1` [NU5455], the inhibition – broadly, the share of the control response that was lost under treatment – at 1 µM was 3.5%.

(Values after PMC6934184, “Selective DNA-PKcs inhibition extends the therapeutic index of localized radiotherapy and chemotherapy” (The Journal of Clinical Investigation, 2019).)
